Measured values from publication PMC4912613, “A broad analysis of resistance development in the malaria parasite” (Nature Communications, 2016).

Legend:
[1] = test system: TM90C2A (DHFR, folate pathway; compared with 3D7); test: Cross-resistance EC50 assay, TM90C2A; format: cell-based; details: Plasmodium falciparum, 48 h, read-out: TM90C2A (3D7 Parent) Average EC50
Description: (§1) To evaluate potential overlapping activity against known antimalarial drug targets, we performed dose-response studies with each compound against our assembled set of drug-resistant lines and their corresponding parents, in an asexual blood stage proliferation assay (Table 1). Comparisons were made to the drug-sensitive strain 3D7 when a parent was unavailable (TM90C2A, W2 and Dd2). As laboratories conducted EC50 assays with different strains and protocols, all comparisons were made between assays from the same laboratory and under the same assay conditions. Compounds displaying >5-fold EC50 shifts relative to the parent or sensitive strain were flagged as having potentially non-novel targets. Average fold shifts per strain ranged from 0.82 to 2.34, with a median of 1.23 indicating there was not common resistance to any one resistant clone. No resistance patterns were observed when classifying the compounds based on chemical structure, but this was not surprising given the diversity of compounds chosen. On the other hand, given that these confirmed compounds were derived from larger unconfirmed hit lists to which some filtration criteria may have been applied (for example, elimination of obvious dihydrofolate reductase inhibitors[32]), some[10][11][12][13] pre-existing bias may exist in the set.
The 48-h assay was carried out in a 96-well format following standard methods using the ^3H-hypoxanthine incorporation assay. The raw EC50 values corresponding to this assay can be found in Supplementary Data 3. Briefly, this assay relies on the parasite incorporation of labelled hypoxanthine that is proportional to P. falciparum growth. A culture of parasitized RBCs (0.5% parasitemia with a percentage of ring stage higher than 70% of total parasitemia, 2.0% haematocrit) in RPMI-1640, […] and 5 μM hypoxanthine was exposed to drug serial dilutions. Plates were incubated for 24 h at 37 °C, 5% CO2, 5% O2 and 90% N2. After 24 h of incubation, ^3H-hypoxanthine was added and plates were incubated for an additional 24-h period. After that, parasites were harvested on a glass fibre filter using a TOMTEC Cell Harvester 96. Filters were dried and melt-on scintillator sheets were used to determine the incorporation of ^3H-hypoxanthine. Radioactivity was measured using a microbeta counter. Data were normalized using the incorporation of the positive (parasitized RBCs without drug) and negative (same culture with artesunate at 2 μM) controls. All assays were conducted in triplicate using three independently grown cultures, and EC50 values were determined using the XLfit add-in module for Excel (version 2.3.1) from Grafit (version 5.3.1.3), where parameter h is the assay hill slope, x is the compound concentration and y is the inhibition of growth effect. The XLfit equation is: […]
EC50 values for each strain were compared with those of the corresponding parent strain to determine fold-shift changes and identify resistance. To minimize the cause variance between assays, all comparisons were conducted between strains assayed under identical conditions. A one-way ANOVA followed by a Dunnet's post-test was conducted in GraphPad Prism to identify significant changes between the parent and resistant strain.

[2] = test system: PfATP4-Mut2 (PfATP4 P412L, parent W2); test: Cross-resistance EC50 assay, PfATP4-Mut2; format: cell-based, Plasmodium falciparum
Description: as §1, with “On the other hand, given that these confirmed compounds were derived from larger unconfirmed hit lists to which some filtration criteria may have been applied (for example, elimination of obvious dihydrofolate reductase inhibitors[32]), some[10][11][12][13] pre-existing bias may exist in the set.” left out
(§2) The 48-h assay was carried out in a 96-well format following standard methods using the ^3H-hypoxanthine incorporation assay. […] Radioactivity was measured using a microbeta counter. […] All assays were conducted in triplicate using three independently grown cultures, and EC50 values were determined using the XLfit add-in module for Excel (version 2.3.1) from Grafit (version 5.3.1.3), where parameter h is the assay hill slope, x is the compound concentration and y is the inhibition of growth effect. […]
(§3) Alternatively, a SYBR Green-based proliferation approach was used for the 72-h assay, as previously described. […] Following incubation, 10 × SYBR Green I (Invitrogen; supplied in 10,000 × concentration) in lysis buffer ([…], 5 mM EDTA, 0.16% Saponin wt per vol and 1.6% Triton X vol per vol) was added to the wells and the plates were incubated overnight at room temperature before plate reading. […]

Hepatocyte toxicity = format: cell-based, human; details: human; read-out: HepG2 EC50 (hepatocyte toxicity)
Outline: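 HepG2 cells were pretreated with compound for 2 h, then infected with fresh P. berghei sporozoites. After 48 h, exoerythrocytic-form viability was read by BrightGlo luminescence; hepatocyte toxicity was tested in parallel. EC50s came from 12-point curves run in duplicate, starting at 5 μM or 50 μM.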

[3] = test system: PfATP4-Mut3 (PfATP4 F917L, parent 3D7); format: cell-based, Plasmodium falciparum
Description: as §1, with “No resistance patterns were observed when classifying the compounds based on chemical structure, but this was not surprising given the diversity of compounds chosen. On the other hand, given that these confirmed compounds were derived from larger unconfirmed hit lists to which some filtration criteria may have been applied (for example, elimination of obvious dihydrofolate reductase inhibitors[32]), some[10][11][12][13] pre-existing bias may exist in the set.” left out
as §2

[4] = test system: 15 resistant strains and their parents; test: Cross-resistance panel, asexual blood stage proliferation EC50 fold shifts (all strains); format: cell-based, Plasmodium falciparum; details: for EC50 fold-shifts in resistant lines relative to parent clones: loss of efficacy in some resistant lines
Description: as §1, with “On the other hand, given that these confirmed compounds were derived from larger unconfirmed hit lists to which some filtration criteria may have been applied (for example, elimination of obvious dihydrofolate reductase inhibitors[32]), some[10][11][12][13] pre-existing bias may exist in the set.” left out
as §2, §3

[5] = test system: resistant parasites generated by MMV007564; test: Cross-resistance to parasites selected with MMV007564; format: cell-based, Plasmodium falciparum
Description: While we found an overall lack of pre-existing resistance, analysing the onset of resistance was critical, as compounds resulting in rapid resistance are not ideal for clinical development. We therefore sought to create drug-resistant parasites using a variety of different selection methods. We implemented either a high-dose method or a ramp-up/pulse method for our in vitro selections. Two of the 50 compounds—MMV028895 and MMV665824—were removed from the selection study during experimentation. […] Out of the remaining 48 compounds, resistant parasites were obtained for 23 (Supplementary Data 1). As each selection was performed in triplicate with three independent cultures, we succeeded in generating a total of 66 resistant cultures. Parasites resistant to MMV026596 were not obtained despite 100 days of selection, but the cultures acquired hypersensitivity to mefloquine with a 10-fold reduction in EC50 compared with its parental line, 3D7. For the remaining 24 compounds, acquisition of resistant parasites was unsuccessful despite numerous attempts over an extensive period of time.

SMILES	EC50 [1]	further results
OC(CNC1CCCCC1)Cn1c2ccc(I)cc2c2cc(I)ccc21 (stereo not drawn) [MMV665882]	207 nM	–
COCCNCC(O)Cn1c2ccc(Cl)cc2c2cc(Cl)ccc21 (stereo not drawn) [MMV019017]	868 nM	–
COc1cc(-c2nc(-c3ccccc3)c(-c3ccccc3)[nH]2)cc(OC)c1O [MMV020750]	674 nM	–
CCCN(CCC)CC(O)COc1ccccc1C(=O)Nc1ccccc1 (stereo not drawn) [MMV006455]	377 nM	–
O=C(NCC(CCCN1CCC(c2c[nH]c3ccccc23)CC1)c1ccccc1)Nc1ccc(Cl)c(Cl)c1 (stereo not drawn) [MMV029272]	415 nM	–
CC(NCc1ccccc1)c1cc(Cl)ccc1O (stereo not drawn) [MMV665789]	1480 nM	–
FC(F)(F)c1cccc(Nc2nc3ccccc3nc2Nc2cccc(C(F)(F)F)c2)c1 [MMV665794]	73 nM	–
O=C(Nc1ccccc1O)c1ccc(Oc2cccc(C(=O)Nc3ccccc3O)c2)cc1 [MMV665888]	1040 nM	–
Nc1ccc(-c2nc3cc(Cc4ccc5[nH]c(-c6ccc(N)cc6)nc5c4)ccc3[nH]2)cc1 [MMV665943]	298 nM	–
COc1cc(C(=O)ON=C(N)Cc2cccc3ccccc23)cc(OC)c1OC [MMV666687]	180 nM	–
CCCOCc1cc(CN2CCN(c3cccc(Cl)c3)CC2)c(O)c2ncccc12 [MMV000787]	1040 nM	–
Cc1ccc(Cn2c(N3CCC(C(=O)NCc4cccs4)CC3)nc3ccccc32)cc1 [MMV007564]	655 nM	–
Nc1ccc(-c2nc3cc(Oc4ccc(Oc5ccc6[nH]c(-c7ccc(N)cc7)nc6c5)cc4)ccc3[nH]2)cc1 [MMV011895]	356 nM	–
c1cncc(-c2cc(N3CCC(CN4CCOCC4)CC3)nc(-c3ccncc3)n2)c1 [MMV668399]	86 nM	–
CCC(C)NCC(O)(c1ccc(Cl)cc1)c1ccc(Cl)cc1 (stereo not drawn) [MMV665928]	432 nM	–
Cc1ccc(Oc2ncccc2C(=O)Cc2cccc3cccnc23)c(C)c1 [MMV020746]	201 nM	–
O=C(Nc1ccsc1C(=O)NC1CCCCC1)c1ccc(F)cc1 [MMV665939]	1350 nM	EC50 fold-shift, PfATP4-Mut2 compared with 3D7 ([2]; loss of efficacy): 18.9 ×
COc1cc(-c2nc(-c3ccccc3)c(-c3ccccc3)[nH]2)ccc1OCCN(C)C [MMV027496]	300 nM	–
CCOc1cc2c(cc1OCC)C(c1cc(Cl)ccc1O)NCC2 (stereo not drawn) [MMV000478]	1440 nM	–
CN(C)Cc1ccc(-c2cc3c(-c4ccc(CN(C)C)cc4)ccnc3[nH]2)cc1.O=C(O)C(F)(F)F [MMV022224]	738 nM	–
COc1ccc(-c2nc(NC(=O)Cc3ccc4c(c3)OCCO4)sc2C)cc1 [MMV019719]	210 nM	–
COC(=O)c1ccc(C2C3=C(O)CC(c4ccc(F)cc4)CC3=Nc3ccccc3N2C(=O)c2ccccc2)cc1 (stereo not drawn) [MMV011438]	322 nM	–
CCN(CC)CCn1c(=N)n(CC(O)c2ccc(Cl)c(Cl)c2)c2ccccc21.Cl (stereo not drawn) [MMV000248]	466 nM	–
c1cc(-c2cnc3ccc(-c4ccc(N5CCOCC5)cc4)nn23)ccn1 [MMV668311]	86 nM	–

SMILES	EC50 [1]	further results
Brc1ccc(Nc2nc3ccccc3nc2Nc2ccc(Br)cc2)cc1 [MMV007224]	154 nM	–
CN(C)S(=O)(=O)c1cc(-c2ccc3nccc(-c4cccc(S(N)(=O)=O)c4)c3c2)cnc1N [MMV024038]	194 nM	EC50 (Hepatocyte toxicity): 146 nM
COc1cc2cc(C(=O)Nc3ccccc3)c(N)nc2cc1OC [MMV006767]	2870 nM	–
Nc1ncc(-c2cn[nH]c2)cc1-c1nc2ccc(F)cc2[nH]1 [MMV023367]	445 nM	–
CCN(CC)S(=O)(=O)c1ccc(-c2csc(Nc3ccc(C)c(C)c3)n2)cc1 [MMV009108]	445 nM	EC50 fold-shift, ATP4-Mut3 vs parent [3]: 5.2 ×; EC50 fold-shift, ATP4-Mut2 vs parent [2]: 23 ×
CN1CCN(c2ccc(Nc3c4ccccc4nc4ccccc34)cc2)CC1 [MMV006172]	162 nM	–
Cc1c(C)n(Cc2ccc(F)cc2)c2ccc(C(=O)NCc3ccco3)cc12 [MMV008149]	908 nM	EC50 fold-shifts in resistant lines relative to parent clones [4]: > 5 fold
CC(C)c1cccc(C(NC(=O)C2Cc3ccccc3CN2C(=O)c2cccc(N3CCOCC3)c2)C2CCCC2)c1 (stereo not drawn) [MMV028038]	287 nM	EC50 fold-shift, ATP4-Mut2 vs parent [2]: 5 ×
COc1ccc(C(=O)C2CC2c2ccc(Cl)cc2)cc1 (stereo not drawn) [MMV665924]	1600 nM	–
CN(C)CCCN(C)C(=O)C1Cc2cc(-c3ccccc3)ccc2N1S(=O)(=O)c1ccccc1 (stereo not drawn) [MMV028895]	253 nM	cross-resistance to resistant parasites generated by MMV007564 [5]: exhibited cross-resistance; EC50 fold-shift, other Dd2 clones compared with 3D7, average ([4]; Dd2-derived clones, average): 5.5 ×
O=C(Nc1ccc(Cl)c(Cl)c1)Nc1ccc(Cl)c(Cl)c1 [MMV665852]	566 nM	–
Cl.c1ccc2c(NCCCCCCNc3c4c(nc5ccccc35)CCCC4)c3c(nc2c1)CCCC3 [MMV019555]	280 nM	–
COc1ccc2c3c([nH]c2c1)[C@H](CO)N(C(C)=O)CC31CCN(C(=O)Nc2ccccc2F)CC1 [MMV673482]	352 nM	–
Cc1ccc(S(=O)(=O)n2cc(-c3ccnc(N)c3)c3cc(Br)cnc32)cc1 [MMV024114]	1050 nM	–
CNCc1ccc2nc(-c3coc(Cc4cc(Cl)ccc4OCC(C)C)n3)[nH]c2c1.Cl.Cl [MMV026596]	267 nM	–
Cc1cc(Nc2ccc(OCc3ccccc3)cc2)nc2cc(O)ccc12 [MMV007181]	278 nM	–
OC(CNC1CCCCC1)Cn1c2ccccc2c2ccccc21 (stereo not drawn) [MMV009063]	537 nM	–
O=C(NC(c1ccccc1)c1ccc2cccnc2c1O)c1ccccc1 (stereo not drawn) [MMV666080]	860 nM	–
CN(C)CCCNCc1ccc(-c2ccc(Cl)c(Cl)c2)o1 [MMV673964]	569 nM	–
COc1ccccc1CNC(=O)CCn1c(=O)[nH]c2ccsc2c1=O [MMV019066]	1620 nM	EC50 fold-shifts in resistant lines relative to parent clones [4]: > 5 fold
CC(C)(C)OC(=O)N1CCN(c2ccccc2NC(=O)c2cccc(C(F)(F)F)c2Oc2ccc(F)cc2)CC1 [MMV030666]	544 nM	–
COc1ccc(N2CCN(C(CNC(=O)C3CCCCC3)c3ccc4c(c3)OCO4)CC2)cc1 (stereo not drawn) [MMV019662]	209 nM	–
Cc1nc2ccc3ccc(CNc4ccc(C(=O)CC(CCC(=O)O)C(=O)O)cc4)cc3c2c(=O)[nH]1.Cl (stereo not drawn) [MMV027634]	64 nM	–
CCCCCCCN(Cc1ccc(OC(C)(C)C(=O)OCC)cc1)C(=O)Nc1ccc(Cl)cc1OCC [MMV021735]	891 nM	–
